Data published in patent publication US20190269129A1, “COMPOSITION CONTAINING 1,2-DIBROMO-2,4-DICYANOBUTANE (DBDCB) AND ZINC PYRITHIONE (ZPT)” (LANXESS Deutschland GmbH, priority 2014, published 2019).

Experiments:
Assay type in all cases: cell-based
Conditions in all cases: for Activity of the biocides determined 1 week after germ addition, week 1: week 1, polymer emulsion pH 6.5; for Activity of the biocides determined 1 week after germ addition, week 2: week 2, polymer emulsion pH 6.5; for Activity of the biocides determined 1 week after germ addition, week 3: week 3, polymer emulsion pH 6.5; for Activity of the biocides determined 1 week after germ addition, week 4: week 4, polymer emulsion pH 6.5; for Activity of the biocides determined 1 week after germ addition, week 5: week 5, polymer emulsion pH 6.5; for Activity of the biocides determined 1 week after germ addition, week 6: week 6, polymer emulsion pH 6.5
[1] = test system: Molds: Acremonium strictum, Aspergillus niger and Geotrichum candidu; assay: Microbiological stress test, preservation of a polymer emulsion: molds
Source text: (§1) The preserving effect of an inventive composition comprising DBDCB and ZPT in a polymer emulsion (acrylate-based, pH=6.5) was investigated using a microbiological stress test. The microbiological stress test examines the susceptibility of water-based systems to microbial attack and the effect of preservatives. To this end, the preservatives are incorporated in defined concentrations into the water-based systems. […] Having knowledge of the microorganism populations prevalent in polymer emulsions and dispersions the experiment employed a mixture of the following microorganism types for testing: Molds: Acremonium strictum, Aspergillus niger and Geotrichum candidu.

[2] = test system: Yeasts: Candida albicans and Rhodotorula rubra; assay: Microbiological stress test, preservation of a polymer emulsion: yeasts
Source text: as §1, with “Yeasts: Candida albicans” for “Molds: Acremonium strictum, Aspergillus niger”, “Rhodotorula rubra.” for “Geotrichum candidu.”

[3] = test system: Bacteria: Escherichia coli, Pseudomonas aeruginosa and Staphylococcus aureus; assay: Microbiological stress test, preservation of a polymer emulsion: bacteria
Source text: as §1, with “Bacteria: Escherichia coli, Pseudomonas aeruginosa” for “Molds: Acremonium strictum, Aspergillus niger”, “Staphylococcus aureus.” for “Geotrichum candidu.”

N#CCCC(Br)(C#N)CBr (stereo not drawn) [DBDCB, 1,2-Dibromo-2,4-dicyanobutane]
Activity of the biocides determined 1 week after germ addition, week 1 ([1]; 0.025 wt % biocide added): 0 (no reduction or only a minor reduction of the microbe level is observed (residual level of at least 10^5 bacteria/10^4 mold/yeast cells per g) (score of 0=poor)) | Activity of the biocides determined 1 week after germ addition, week 2 ([1]; 0.025 wt % biocide added): 0 (no reduction or only a minor reduction of the microbe level is observed (residual level of at least 10^5 bacteria/10^4 mold/yeast cells per g) (score of 0=poor)) | Activity of the biocides determined 1 week after germ addition, week 3 ([1]; 0.025 wt % biocide added): 0 (no reduction or only a minor reduction of the microbe level is observed (residual level of at least 10^5 bacteria/10^4 mold/yeast cells per g) (score of 0=poor)) | Activity of the biocides determined 1 week after germ addition, week 4 ([1]; 0.025 wt % biocide added): 0 (no reduction or only a minor reduction of the microbe level is observed (residual level of at least 10^5 bacteria/10^4 mold/yeast cells per g) (score of 0=poor)) | Activity of the biocides determined 1 week after germ addition, week 5 ([1]; 0.025 wt % biocide added): 0 (no reduction or only a minor reduction of the microbe level is observed (residual level of at least 10^5 bacteria/10^4 mold/yeast cells per g) (score of 0=poor)) | Activity of the biocides determined 1 week after germ addition, week 6 ([1]; 0.025 wt % biocide added): 0 (no reduction or only a minor reduction of the microbe level is observed (residual level of at least 10^5 bacteria/10^4 mold/yeast cells per g) (score of 0=poor)) | Activity of the biocides determined 1 week after germ addition, week 1 ([1]; 0.05 wt % biocide added): 0 (no reduction or only a minor reduction of the microbe level is observed (residual level of at least 10^5 bacteria/10^4 mold/yeast cells per g) (score of 0=poor)) | Activity of the biocides determined 1 week after germ addition, week 2 ([1]; 0.05 wt % biocide added): 0 (no reduction or only a minor reduction of the microbe level is observed (residual level of at least 10^5 bacteria/10^4 mold/yeast cells per g) (score of 0=poor)) | Activity of the biocides determined 1 week after germ addition, week 3 ([1]; 0.05 wt % biocide added): 0 (no reduction or only a minor reduction of the microbe level is observed (residual level of at least 10^5 bacteria/10^4 mold/yeast cells per g) (score of 0=poor)) | Activity of the biocides determined 1 week after germ addition, week 4 ([1]; 0.05 wt % biocide added): 0 (no reduction or only a minor reduction of the microbe level is observed (residual level of at least 10^5 bacteria/10^4 mold/yeast cells per g) (score of 0=poor)) | Activity of the biocides determined 1 week after germ addition, week 5 ([1]; 0.05 wt % biocide added): 0 (no reduction or only a minor reduction of the microbe level is observed (residual level of at least 10^5 bacteria/10^4 mold/yeast cells per g) (score of 0=poor)) | Activity of the biocides determined 1 week after germ addition, week 6 ([1]; 0.05 wt % biocide added): 0 (no reduction or only a minor reduction of the microbe level is observed (residual level of at least 10^5 bacteria/10^4 mold/yeast cells per g) (score of 0=poor)) | Activity of the biocides determined 1 week after germ addition, week 1 ([2]; 0.025 wt % biocide added): 0 (no reduction or only a minor reduction of the microbe level is observed (residual level of at least 10^5 bacteria/10^4 mold/yeast cells per g) (score of 0=poor)) | Activity of the biocides determined 1 week after germ addition, week 2 ([2]; 0.025 wt % biocide added): 0 (no reduction or only a minor reduction of the microbe level is observed (residual level of at least 10^5 bacteria/10^4 mold/yeast cells per g) (score of 0=poor)) | Activity of the biocides determined 1 week after germ addition, week 3 ([2]; 0.025 wt % biocide added): 0 (no reduction or only a minor reduction of the microbe level is observed (residual level of at least 10^5 bacteria/10^4 mold/yeast cells per g) (score of 0=poor)) | Activity of the biocides determined 1 week after germ addition, week 4 ([2]; 0.025 wt % biocide added): 0 (no reduction or only a minor reduction of the microbe level is observed (residual level of at least 10^5 bacteria/10^4 mold/yeast cells per g) (score of 0=poor)) | Activity of the biocides determined 1 week after germ addition, week 5 ([2]; 0.025 wt % biocide added): 0 (no reduction or only a minor reduction of the microbe level is observed (residual level of at least 10^5 bacteria/10^4 mold/yeast cells per g) (score of 0=poor)) | Activity of the biocides determined 1 week after germ addition, week 6 ([2]; 0.025 wt % biocide added): 0 (no reduction or only a minor reduction of the microbe level is observed (residual level of at least 10^5 bacteria/10^4 mold/yeast cells per g) (score of 0=poor)) | Activity of the biocides determined 1 week after germ addition, week 1 ([2]; 0.05 wt % biocide added): 0 (no reduction or only a minor reduction of the microbe level is observed (residual level of at least 10^5 bacteria/10^4 mold/yeast cells per g) (score of 0=poor)) | Activity of the biocides determined 1 week after germ addition, week 2 ([2]; 0.05 wt % biocide added): 0 (no reduction or only a minor reduction of the microbe level is observed (residual level of at least 10^5 bacteria/10^4 mold/yeast cells per g) (score of 0=poor)) | Activity of the biocides determined 1 week after germ addition, week 3 ([2]; 0.05 wt % biocide added): 0 (no reduction or only a minor reduction of the microbe level is observed (residual level of at least 10^5 bacteria/10^4 mold/yeast cells per g) (score of 0=poor)) | Activity of the biocides determined 1 week after germ addition, week 4 ([2]; 0.05 wt % biocide added): 0 (no reduction or only a minor reduction of the microbe level is observed (residual level of at least 10^5 bacteria/10^4 mold/yeast cells per g) (score of 0=poor)) | Activity of the biocides determined 1 week after germ addition, week 5 ([2]; 0.05 wt % biocide added): 0 (no reduction or only a minor reduction of the microbe level is observed (residual level of at least 10^5 bacteria/10^4 mold/yeast cells per g) (score of 0=poor)) | Activity of the biocides determined 1 week after germ addition, week 6 ([2]; 0.05 wt % biocide added): 0 (no reduction or only a minor reduction of the microbe level is observed (residual level of at least 10^5 bacteria/10^4 mold/yeast cells per g) (score of 0=poor)) | Activity of the biocides determined 1 week after germ addition, week 1 ([3]; 0.025 wt % biocide added): 0 (no reduction or only a minor reduction of the microbe level is observed (residual level of at least 10^5 bacteria/10^4 mold/yeast cells per g) (score of 0=poor)) | Activity of the biocides determined 1 week after germ addition, week 2 ([3]; 0.025 wt % biocide added): 0 (no reduction or only a minor reduction of the microbe level is observed (residual level of at least 10^5 bacteria/10^4 mold/yeast cells per g) (score of 0=poor)) | Activity of the biocides determined 1 week after germ addition, week 3 ([3]; 0.025 wt % biocide added): 0 (no reduction or only a minor reduction of the microbe level is observed (residual level of at least 10^5 bacteria/10^4 mold/yeast cells per g) (score of 0=poor)) | Activity of the biocides determined 1 week after germ addition, week 4 ([3]; 0.025 wt % biocide added): 0 (no reduction or only a minor reduction of the microbe level is observed (residual level of at least 10^5 bacteria/10^4 mold/yeast cells per g) (score of 0=poor)) | Activity of the biocides determined 1 week after germ addition, week 5 ([3]; 0.025 wt % biocide added): 0 (no reduction or only a minor reduction of the microbe level is observed (residual level of at least 10^5 bacteria/10^4 mold/yeast cells per g) (score of 0=poor)) | Activity of the biocides determined 1 week after germ addition, week 6 ([3]; 0.025 wt % biocide added): 0 (no reduction or only a minor reduction of the microbe level is observed (residual level of at least 10^5 bacteria/10^4 mold/yeast cells per g) (score of 0=poor)) | Activity of the biocides determined 1 week after germ addition, week 1 ([3]; 0.05 wt % biocide added): 0 (no reduction or only a minor reduction of the microbe level is observed (residual level of at least 10^5 bacteria/10^4 mold/yeast cells per g) (score of 0=poor)) | Activity of the biocides determined 1 week after germ addition, week 2 ([3]; 0.05 wt % biocide added): 0 (no reduction or only a minor reduction of the microbe level is observed (residual level of at least 10^5 bacteria/10^4 mold/yeast cells per g) (score of 0=poor)) | Activity of the biocides determined 1 week after germ addition, week 3 ([3]; 0.05 wt % biocide added): 0 (no reduction or only a minor reduction of the microbe level is observed (residual level of at least 10^5 bacteria/10^4 mold/yeast cells per g) (score of 0=poor)) | Activity of the biocides determined 1 week after germ addition, week 4 ([3]; 0.05 wt % biocide added): 0 (no reduction or only a minor reduction of the microbe level is observed (residual level of at least 10^5 bacteria/10^4 mold/yeast cells per g) (score of 0=poor)) | Activity of the biocides determined 1 week after germ addition, week 5 ([3]; 0.05 wt % biocide added): 0 (no reduction or only a minor reduction of the microbe level is observed (residual level of at least 10^5 bacteria/10^4 mold/yeast cells per g) (score of 0=poor)) | Activity of the biocides determined 1 week after germ addition, week 6 ([3]; 0.05 wt % biocide added): 0 (no reduction or only a minor reduction of the microbe level is observed (residual level of at least 10^5 bacteria/10^4 mold/yeast cells per g) (score of 0=poor))
